The text below walks through data of US12305171B2, “Compositions and methods for treating cancer” (bioAffinity Technologies, Inc., priority 2018, dated 2025).

Holding throughout (type): cell-based
In data set [1] the test system is A172. The data set can be described thus: doxorubicin cell viability, CTG assay. Conditions: Homo sapiens, A 172, 96 h. As to the method: (§1) A172 and HCC15 cells were plated at 1200 cells/well in a 96 well plate. The next day, cells were treated with doxorubicin at the indicated concentrations. Four days after doxorubicin treatment was initiated, the cells were assayed for viability using the CTG assay. The dashed line indicates the non-linear fitting of the data to calculate an IC50 value.
(§2) A172 and HCC15 cells were plated at 1200 cells/well in a 96 well plate. The next day, cells were treated with doxorubicin at the indicated concentrations. Four days after the doxorubicin exposure was initiated, the cells were assayed for viability using the CTG assay. […] After incubating the cells with the CTG reagent, ATP levels can be indirectly measured as light production using the TECAN luminescence plate reader. As a first step, toxicity of a known chemotherapeutic drug, doxorubicin, was assayed on the cell lines of interest. Doxorubicin was used as a positive control for cell toxicity in our assay.
(§3) The cells lines were plated at 1,000 to 4,000 cells/well in a 96-well plate and treated with doxorubicin the following day. CTG activity was measured 4 days after treatment. IC50 values were calculated by GraphPad Prism Software.

Data set [2] has as its system HCC15. The data set is described as follows: doxorubicin cell viability, CTG assay. Conditions: 96 h. As for the experimental part: as §1, §2, §3
The next data set deals with HEK293. The data set is described as follows: doxorubicin cell viability, CTG assay. The note with it: Homo sapiens, 96 h; HEK293, Other; CTG 4 days after treatment. As to the method: as §2, §3
In a further data set the test system is GM05659. The data set can be described thus: doxorubicin cell viability, CTG assay. The note with it: 96 h; GM05659, Other; CTG 4 days after treatment. As for the experimental part: as §2, §3
The next data set concerns MDA-MB-435S. The data set can be described thus: doxorubicin cell viability, CTG assay. The note with it: Homo sapiens, 96 h, Melanoma, CTG 4 days after treatment. As to the method: as §2, §3
A further data set relates to NCI-H460. The data set can be described thus: doxorubicin cell viability, CTG assay. Conditions: Homo sapiens, 96 h; NCI-H460, Lung; CTG 4 days after treatment. As to the method: as §2, §3
The test system of data set [3] is PC3. The data set is described as follows: doxorubicin cell viability, CTG assay. The note with it: Homo sapiens, PC-3, 96 h; PC3, Prostate; CTG 4 days after treatment. As for the experimental part: as §2, §3
The next data set deals with U251. The data set can be described thus: doxorubicin cell viability, CTG assay. The note with it: Homo sapiens, U-251, 96 h; U251, Glioblastoma; CTG 4 days after treatment. As for the experimental part: as §2, §3
The next data set concerns DU145. The data set can be described thus: doxorubicin cell viability, CTG assay. Conditions: Homo sapiens, DU-145, 96 h; DU145, Prostate; CTG 4 days after treatment. As to the method:
as §2, §3

Another data set relates to GM05659 fibroblasts. The data set is described as follows: lentiviral shRNA knockdown of CD320 and LRP2, cell growth observation. Further details: key: +++: cells unaffected compared to shSCR (control); ++: cells modestly affected compared to shSCR (control); +: cells significantly affected compared to shSCR (control); 0: vast majority of cells killed compared to shSCR (control). Conditions: GM05659, normal cells. From the text:
(§4) Mechanistic investigations into the selectivity of porphyrin uptake by cancer cells led to several nonobvious compounds and methods of using the compound(s). It was discovered that the knockdown of the expression of either CD320 gene or LRP2 gene or the simultaneous knockdown of the expression of CD320 gene and LRP2 gene caused cell death or inhibition of cell growth in a panel of lung cancer cell lines, compared to normal fibroblasts. The experimental outline is illustrated in FIG. 1. In these experiments, cells were plated on day 0. The next day (day 1), virus particles encoding short hairpin RNAs (shRNAs) directed to the CD320 gene and the LRP2 gene or an irrelevant shRNA control were added to the cell culture together with protamine sulfate, a reagent that facilitates cell entry of the virus particles.
(§5) FIG. 1 illustrates an experimental design for knocking down CD320 and LRP2 in a cell. Cells were plated on day 0. The next day (day 1), virus particles encoding short hairpin RNAs (shRNAs) directed at the CD320 and LRP2 mRNA or a non-targeting shRNA control were added to the cell culture together with protamine sulfate, a reagent that facilitates cell entry of the virus particles. […] Each shRNA coding sequence was also combined with a unique drug resistance gene, which would allow for selecting those cells that had taken up the shRNA; cells that had not taken up the shRNA would not survive. On day 2, drug selection was started. On day 3, the cells were harvested and plated in a new dish. Only the cells with a drug resistance gene, i.e., those cells that had taken up shRNA virus particles would survive this re-plating procedure. From day 4 on, each culture was closely observed for cell growth. Cells infected with the non-targeting negative control shRNA continued growing—data not shown.
FIGS. 2 A-C illustrates sensitivity of cancer cell lines to knockdown of CD320 and LRP2. […] The fields of cells in FIG. 2A were counted and quantified and illustrated in FIG. 2B. […]

For another data set, the system named is MDA-MB-4353. The data set is described as above. Conditions: MDA-MB-4353, melanoma cells. Also on record: key: +++: cells unaffected compared to shSCR (control); ++: cells modestly affected compared to shSCR (control); +: cells significantly affected compared to shSCR (control); 0: vast majority of cells killed compared to shSCR (control).
From the text: as §4, §5
(§6) The Each vector that carried a shRNA coding sequence also contained a unique drug resistance gene which would allow for selecting those cells that had taken up the shRNA as those cells that had not taken up the shRNA having the unique drug resistance gene would not survive. On day 2, drug selection was started. On day 3, the cells were harvested and plated in a new dish. Only the cells with a drug resistance gene, i.e., those cells that had taken up shRNA virus particles would survive this re-plating procedure. From day 4 on, each culture was closely observed for cell growth. The cells that were infected with the irrelevant control shRNA kept on growing as expected (since the shRNA was essentially a non-functional shRNA)—data not shown.
(§7) Additional cancer cell lines were also treated with the compounds described herein to determine whether cancer cell lines were more susceptible to growth inhibition and toxicity as compared to non-cancer cells of the same origin. Cell lines from skin, prostate, and brain cancers were screened similarly to the experimental outline in FIG. 1. Table 3 summarizes the effects of simultaneous knockdown of CD320 and LRP2 in cancer and normal cells.

The test system of data set [4] is A172. The description is as above. Further details: key: +++: cells unaffected compared to shSCR (control); ++: cells modestly affected compared to shSCR (control); +: cells significantly affected compared to shSCR (control); 0: vast majority of cells killed compared to shSCR (control). The note with it: A172, glioblastoma.
From the text: as §4, §5, §6, §7

The subject of another data set is U251MG. The data set is described as above. The note with it: glioblastoma. Also on record: key: +++: cells unaffected compared to shSCR (control); ++: cells modestly affected compared to shSCR (control); +: cells significantly affected compared to shSCR (control); 0: vast majority of cells killed compared to shSCR (control).
From the text: as §4, §5, §6, §7

A further data set has as its system LncAP. The data set is described as above. Also on record: key: +++: cells unaffected compared to shSCR (control); ++: cells modestly affected compared to shSCR (control); +: cells significantly affected compared to shSCR (control); 0: vast majority of cells killed compared to shSCR (control). Conditions: prostate cells.
From the text: as §4, §5, §6, §7

The test system of the next data set is U343. The data set is described as above. Further details: key: +++: cells unaffected compared to shSCR (control); ++: cells modestly affected compared to shSCR (control); +: cells significantly affected compared to shSCR (control); 0: vast majority of cells killed compared to shSCR (control). Conditions: U343, glioblastoma.
From the text: as §4, §5, §6, §7

For the next data set, the system named is GM00701. Described as above. Also on record: key: +++: cells unaffected compared to shSCR (control); ++: cells modestly affected compared to shSCR (control); +: cells significantly affected compared to shSCR (control); 0: vast majority of cells killed compared to shSCR (control). Conditions: GM00701, normal cells.
From the text: as §4, §5, §6, §7

The next data set relates to DU-145. The description is as above. Further details: key: +++: cells unaffected compared to shSCR (control); ++: cells modestly affected compared to shSCR (control); +: cells significantly affected compared to shSCR (control); 0: vast majority of cells killed compared to shSCR (control). Conditions: DU-145, prostate cells.
From the text: as §4, §5, §6, §7

Data set [5] has as its system PC3. The description is as above. Also on record: key: +++: cells unaffected compared to shSCR (control); ++: cells modestly affected compared to shSCR (control); +: cells significantly affected compared to shSCR (control); 0: vast majority of cells killed compared to shSCR (control). The note with it: PC3, prostate cells.
From the text: as §4, §5, §6, §7

Data set [6] relates to HCC15. The data set is described as above. Further details: key: +++: cells unaffected compared to shSCR (control); ++: cells modestly affected compared to shSCR (control); +: cells significantly affected compared to shSCR (control); 0: vast majority of cells killed compared to shSCR (control). The note with it: HCC15, lung cells.
From the text: as §4, §5, §6, §7

A further data set has as its system H157. The data set is described as above. Further details: key: +++: cells unaffected compared to shSCR (control); ++: cells modestly affected compared to shSCR (control); +: cells significantly affected compared to shSCR (control); 0: vast majority of cells killed compared to shSCR (control). Conditions: H157, lung cells.
From the text: as §4, §5, §6, §7

Another data set has as its system T98G. The data set is described as above. Also on record: key: +++: cells unaffected compared to shSCR (control); ++: cells modestly affected compared to shSCR (control); +: cells significantly affected compared to shSCR (control); 0: vast majority of cells killed compared to shSCR (control). Conditions: glioblastoma.
From the text: as §4, §5, §6, §7

Another data set deals with H358. The data set is described as above. Also on record: key: +++: cells unaffected compared to shSCR (control); ++: cells modestly affected compared to shSCR (control); +: cells significantly affected compared to shSCR (control); 0: vast majority of cells killed compared to shSCR (control). The note with it: H358, lung cells.
From the text: as §4, §5, §6, §7

Another data set has as its system H1993. The data set is described as above. Conditions: H1993, lung cells. Further details: key: +++: cells unaffected compared to shSCR (control); ++: cells modestly affected compared to shSCR (control); +: cells significantly affected compared to shSCR (control); 0: vast majority of cells killed compared to shSCR (control).
From the text: as §4, §5, §6, §7

Read-outs that look alike come from different tables or passages of the source.

One may read the IC50 as the concentration that inhibits the measured activity by half. On to `COc1cccc2c1C(=O)c1c(O)c3c(c(O)c1C2=O)C[C@@](O)(C(=O)CO)C[C@@H]3O[C@H]1C[C@H](N)[C@H](O)[C@H](C)O1` [doxorubicin], for which the IC50 was found to be 132 nM in the data set with A172 [1] (A172, Glioblastoma, CTG 4 days after treatment, read-out: IC50); 132 nM in the data set with A172 [1] (A172 cells, CTG four days after exposure, read-out: IC50 of doxorubicin treatment); 167 nM in the data set with HCC15 [2] (HCC15, Lung, CTG 4 days after treatment, read-out: IC50); 167 nM in the data set on HCC15 [2] (HCC15 cells, CTG four days after exposure, read-out: IC50 of doxorubicin treatment); 29 nM in the data set on HEK293; 267 nM in the data set with GM05659. For the same molecule, the IC50 worked out at 325 nM with MDA-MB-435S; 56 nM with NCI-H460; 387 nM in the data set on PC3 [3]; 24 nM in the data set with U251; 248 nM with DU145.

For the molecule “shSCR: non-targeting control shRNA in lentiviral vector; SEQ ID NO. 941/942 [reference compound]”, the “cells affected compared to shSCR (control)” value with GM05659 fibroblasts, in the data set with MDA-MB-4353, in the data set on A172 [4], in the data set on U251MG, in the data set with LncAP and in the data set on U343 was “+++” each time. Also, the “cells affected compared to shSCR (control)” value in the data set on GM00701, with DU-145, with PC3 [5], in the data set with HCC15 [6], with H157 and in the data set with T98G was “+++” each time. The “cells affected compared to shSCR (control)” value in the data set on H358 and in the data set on H1993 was “+++” in each case.
